Reference: patent US7232912B2, “Indazole compounds, pharmaceutical compositions, and methods for mediating or inhibiting cell proliferation” (Agouron Pharmaceuticals, Inc., priority 2000, dated 2007)

Tests used:
Assay type in all cases: biochemical
[1] = biological target: CDK4/cyclin D3 (Homo sapiens, UniProt P11802); assay: Inhibition of CDK4/Cyclin D Retinoblastoma Kinase Activity; conditions: apparent Ki
Method in brief: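 Human CDK4/cyclin D3 (full-length or cyclin D3 1–264), insect-cell expressed, at 5 or 50 nM with His-tagged Rb 386–928 substrate, 25 μM ATP plus [32P/33P]ATP, pH 7.4, 2% DMSO, 30 °C for 20 min; tight binders used 5 nM enzyme for 60 min. Filter-captured phospho-Rb quantified by phosphorimager. Apparent Ki from competitive or tight-binding inhibition fits.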

[2] = biological target: T1, CDK2/cyclin A (Homo sapiens, UniProt P24941); assay: Inhibition of CDK2/Cyclin A Retinoblastoma Kinase Activity; conditions: apparent Ki
T1 construct: made in house; host or cells: CDK2: insect cells (baculovirus); cyclin A: E. coli
Method in brief: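 Baculovirus-expressed CDK2 complexed with proteolyzed cyclin A, at 150 nM or 5 nM, phosphorylating an Rb fragment with 25 µM [32/33P]ATP in HEPES pH 7.4, 2% DMSO. Reactions run 20 min at 30°C, EDTA-stopped, filter-captured; apparent Ki from competitive or tight-binding competitive fits.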

[3] = biological target: T2, FGFR1 tyrosine kinase (Homo sapiens, UniProt P11362, C488A/C584S/L457V); assay: Inhibition of phosphorylated FGF receptor tyrosine kinase activity; conditions: for inhibition at 1 µM: read-out: FGF % Inhib. at 1 μM
T2 construct: the cytosolic domain of FGFR1 tyrosine kinase (amino acids 456–766); made in house; host or cells: Sf9 insect cells (baculovirus)
Method in brief: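 Phosphorylated Sf9-expressed kinases, FGFR1 (aa 456–766) at 100 nM and LCK (aa 223–509) at 50 nM, with 100 μM ATP and poly(Glu,Tyr) 4:1 at 5.1 (FGFR) or 25 mM (LCK), pH 7.5, 37° C. Pyruvate kinase/LDH-coupled NADH loss read at 340 nm under initial-rate conditions; % inhibition versus 2% DMSO control.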

CDK4/cyclin D3, sequence (P11802 2-303 limits assumed): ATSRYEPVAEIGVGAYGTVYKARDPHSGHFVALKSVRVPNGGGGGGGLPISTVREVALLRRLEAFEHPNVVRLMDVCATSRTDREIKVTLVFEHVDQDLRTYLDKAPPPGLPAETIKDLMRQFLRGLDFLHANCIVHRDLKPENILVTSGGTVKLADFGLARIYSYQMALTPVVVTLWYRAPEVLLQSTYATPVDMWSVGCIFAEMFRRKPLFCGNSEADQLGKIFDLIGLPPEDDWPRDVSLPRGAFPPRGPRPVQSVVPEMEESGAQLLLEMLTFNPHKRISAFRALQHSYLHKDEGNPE
CDK4/cyclin D3, sequence (P30281 1-264 limits assumed, further chain): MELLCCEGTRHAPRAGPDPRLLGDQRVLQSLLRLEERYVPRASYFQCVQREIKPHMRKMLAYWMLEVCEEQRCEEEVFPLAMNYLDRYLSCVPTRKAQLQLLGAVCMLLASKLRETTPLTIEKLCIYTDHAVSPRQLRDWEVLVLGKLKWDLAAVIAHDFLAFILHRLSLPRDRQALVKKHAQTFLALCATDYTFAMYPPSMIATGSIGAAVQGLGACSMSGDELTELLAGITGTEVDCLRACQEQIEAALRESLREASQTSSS
T2 sequence (P11362 456-766 L457V/C488A/C584S): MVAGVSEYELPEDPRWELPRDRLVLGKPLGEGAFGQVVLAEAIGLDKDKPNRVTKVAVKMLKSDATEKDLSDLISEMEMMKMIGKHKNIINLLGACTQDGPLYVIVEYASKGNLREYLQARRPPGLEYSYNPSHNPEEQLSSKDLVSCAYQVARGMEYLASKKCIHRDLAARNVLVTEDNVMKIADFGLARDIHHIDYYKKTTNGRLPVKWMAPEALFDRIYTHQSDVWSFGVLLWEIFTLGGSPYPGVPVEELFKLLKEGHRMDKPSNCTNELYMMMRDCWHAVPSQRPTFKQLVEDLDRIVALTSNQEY

Row | Ki [1] [nM] | Ki [2] [nM] | inhibition at 1 µM [3] [%] | Ki [3] [nM] | SMILES
1 | 3.5 | 2.6 | 55 | – | Clc1ccncc1-c1ccc2[nH]nc(-c3nc4ccccc4[nH]3)c2c1 [Example 52, 3-(1H-Benzoimidazol-2-yl)-5-(4-chloro-pyridin-3-yl)-1H-indazole]
2 | 1.8 | 0.23 | 63 | – | CS(=O)(=O)Nc1ccc2nc(-c3n[nH]c4ccc(-c5cncc6ccccc56)cc34)[nH]c2c1 [Example 70, N-[2-(5-Isoquinolin-4-yl-1H-indazol-3-yl)-3H-benzoimidazol-5-yl]-methanesulfonamide]
3 | 35 | 15 | – | 1000 | C(=C\c1n[nH]c2ccc(-c3cncc4ccccc34)cc12)/c1ccccc1 [Example 16]
4 | 17 | 1.2 | 60.7 | 480 | CCc1c(-c2ccncc2)cncc1-c1ccc2[nH]nc(-c3nc4ccccc4[nH]3)c2c1 [Example 61, 5-[3-(1H-Benzoimidazol-2yl)-1H-indazol-5-yl]-4ethyl-[3,4′]bipyridinyl]
5 | 6.7 | 1 | 20.3 | 3000 | Cc1c(-c2cccnc2)cncc1-c1ccc2[nH]nc(-c3nc4ccccc4[nH]3)c2c1 [Example 58]
6 | 12 | 7.6 | 48.6 | – | Cc1c(CO)cncc1-c1ccc2[nH]nc(-c3nc4ccccc4[nH]3)c2c1 [Example 72, {5-[3-(1H-Benzoimidazol-2-yl)-1H-indazol-5-yl]-4-methyl-pyridin-3-yl}-methanol]
7 | 2.3 | 1 | 55.8 | – | CCN(CC)Cc1cccc2[nH]c(-c3n[nH]c4ccc(-c5cncc6ccccc56)cc34)nc12 [Example 36, Diethyl-[2-(5-isoquinolin-4-yl-1H-indazol-3-yl)-1H-benzoimidazol-4-ylmethyl]-amine]
8 | 6.9 | 2.7 | 42.9 | – | Cc1c(CN(C)C)cncc1-c1ccc2[nH]nc(-c3nc4ccccc4[nH]3)c2c1 [Example 73, {5-[3-(1H-Benzoimidazol-2-yl)-1H-indazol-5-yl]-4-methyl-pyridin-3-ylmethyl}-dimethyl-amine]
9 | 0.85 | 1 | 28.8 | – | Cc1c(-c2ccncc2)cncc1-c1ccc2[nH]nc(-c3nc4ccc(NS(C)(=O)=O)cc4[nH]3)c2c1 [Example 71, N-{2-[5-(4-methyl-[3,4′]bipyridinyl-5-yl)-1H-indazol-3-yl)-3H-benzoimidazol-5-yl]-methanesulfonamide]
10 | 1.6 | 0.58 | 47.6 | – | Cc1c(/C=C/CO)cncc1-c1ccc2[nH]nc(-c3nc4ccccc4[nH]3)c2c1 [Example 59, (E)-3-{5-[3-(1H-Benzoimidazol-2-yl)-1H-indazol-5-yl]-4-methyl-pyridin-3-yl}-prop-2-en-1-ol]
11 | 26 | 0.27 | 81.5 | – | c1ccc2[nH]c(-c3n[nH]c4ccc(-c5cncc6c5CCCN6)cc34)nc2c1 [Example 54]
12 | 2.6 | 0.29 | 32 | – | Cc1c(-c2ccncc2)cncc1-c1ccc2[nH]nc(-c3nc4ccccc4[nH]3)c2c1 [Example 53, 5-[3-(1H-Benzoimidazol-2-yl)-1H-indazol-5-yl]-4-methyl-[3,4′]bipyridinyl]
13 | 30 | 28 | 50.5 | – | CCc1cncc(-c2ccc3[nH]nc(/C=C/c4ccccc4)c3c2)c1Cl [Example 46, 5-(4-Chloro-5-ethyl-pyridin-3-yl)-3-(E)-styryl-1H-indazole]
14 | 18 | 62 | 87 | – | Cc1c(O)cccc1-c1ccc2[nH]nc(/C=C/c3ccccc3)c2c1 [15′, 2-Methyl-3-[3-((E)-styryl)-1H-indazol-5-yl]-phenol]
15 | 74 | 33 | 61 | – | Cc1c(O)cccc1-c1ccc2[nH]nc(-c3nc4ccccc4[nH]3)c2c1 [10′, 3-[3-(1H-Benzoimidazol-2-yl)-1H-indazol-5-yl]-2-methyl-phenol]
16 | 41 | 1.1 | 83.6 | – | O=C(Nc1cccc2c(-c3ccc4[nH]nc(-c5nc6ccccc6[nH]5)c4c3)cncc12)c1cccnc1 [Example 55, N-{4-[3-(1H-Benzoimidazol-2-yl)-1H-indazol-5-yl]-isoquinolin-8-yl}-nicotinamide]
17 | 1.6 | 0.6 | 40.8 | – | Cc1c(CCCO)cncc1-c1ccc2[nH]nc(-c3nc4ccccc4[nH]3)c2c1 [Example 60, (E)-3-{5-[3-(1H-Benzoimidazol-2-yl)-1H-indazol-5-yl]-4-methyl-pyridin-3-yl}-propan-1-ol]
18 | 0.52 | 1.6 | 82.6 | – | CCNCc1cncc(-c2ccc3[nH]nc(-c4nc5ccccc5[nH]4)c3c2)c1C [Example 74, {5-[3-(1H-Benzoimidazol-2-yl)-1H-indazol-5-yl]-4-methyl-pyridin-3-ylmethyl}-ethyl-amine]
19 | 15 | 4.1 | 25.6 | – | Cc1c(-c2cccc(CO)c2)cncc1-c1ccc2[nH]nc(-c3nc4ccccc4[nH]3)c2c1 [Example 69, (3-{5-[3-(1H-Benzoimidazol-2-yl)-1H-indazol-5-yl]-4-methyl-pyridin-3-yl}-phenyl)-methanol]
20 | 200 | 160 | 53 | – | Fc1ccccc1-c1ccc2[nH]nc(-c3nc4ccccc4[nH]3)c2c1 [Example 6, 3-(1H-Benzoimidazol-2-yl)-5-(2-fluorophenyl)-1H-Indazole]
21 | 0.37 | 0.21 | 55.5 | – | CN(C)Cc1cccc2[nH]c(-c3n[nH]c4ccc(-c5cncc6ccccc56)cc34)nc12 [Example 31, [2-(5-Isoquinolin-4-yl-1H-indazol-3-yl)-1H-benzoimidazol-4-ylmethyl]-dimethyl-amine]
22 | 7.7 | 0.47 | – | 2200 | OCc1cccc2[nH]c(-c3n[nH]c4ccc(-c5cncc6ccccc56)cc34)nc12 [Example 29, [2-(5-Isoquinolin-4-yl-1H-indazol-3-yl)-1H-benzoimidazol-4-yl]-methanol]

Row | SMILES | Ki [1] [nM] | Ki [2] [nM] | inhibition at 1 µM [3] [%] | Ki [3] [nM]
23 | CCNCc1cccc2[nH]c(-c3n[nH]c4ccc(-c5cncc6ccccc56)cc34)nc12 [Example 37, Ethyl-[2-(5-isoquinolin-4-yl-1H-indazol-3-yl)-1H-benzoimidazol-4-ylmethyl]-amine] | 0.76 | 0.22 | 34.4 | –
24 | CC(C)NCc1cccc2[nH]c(-c3n[nH]c4ccc(-c5cncc6ccccc56)cc34)nc12 [Example 38, Isopropyl-[2-(5-isoquinolin-4-yl-1H-indazol-3-yl)-1H-benzoimidazol-4-ylmethyl]-amine] | 0.798 | 1 | 42.4 | –
25 | c1ccc2[nH]c(-c3n[nH]c4ccc(-c5cccc6[nH]ccc56)cc34)nc2c1 [Example 48, 3-(1H-Benzoimidazol-2-yl)-5-(1H-indol-4-yl)-1H-indazole] | 21 | 55 | 68.5 | –
